Test results taken from patent US20210038607A1, “OXADIAZOLYLTHIOPHENE DERIVATIVES USEFUL AS HISTONE DEACETYLASE INHIBITORS” (Karus Therapeutics Limited, priority 2018, published 2021).
pIC50: −log10 of the molar value. Read-outs that look alike come from different tables or passages of the source.

How the values were obtained:
Human HDAC8 = biological target: T1, Human HDAC8 (Homo sapiens, UniProt Q9BY41); assay: HDAC8 biochemical assay, AMC-labeled peptide substrate; conditions: read-out: HDAC Isoform IC50 (nM) 8
T1 construct: full length with C-terminal His tag, MW=42.6 kDa; His (C); host or cells: baculovirus expression system
T1 sequence (Q9BY41 1-377): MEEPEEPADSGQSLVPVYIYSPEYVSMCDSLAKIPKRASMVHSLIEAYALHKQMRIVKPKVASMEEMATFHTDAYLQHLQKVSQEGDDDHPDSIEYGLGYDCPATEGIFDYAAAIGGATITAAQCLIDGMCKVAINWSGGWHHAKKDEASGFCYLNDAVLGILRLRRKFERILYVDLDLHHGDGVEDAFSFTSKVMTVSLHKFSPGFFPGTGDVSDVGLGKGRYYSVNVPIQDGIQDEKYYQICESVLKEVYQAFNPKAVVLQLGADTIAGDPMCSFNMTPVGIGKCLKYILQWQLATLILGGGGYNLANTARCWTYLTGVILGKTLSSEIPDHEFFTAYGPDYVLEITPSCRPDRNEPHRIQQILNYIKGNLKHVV
How it was run: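 Two-step fluorogenic readout: compounds and enzyme deacetylate 100 µM RHK(Ac)K(Ac)AMC for 2 h at 30° C (pH8.0 Tris buffer, BSA, 1% DMSO final), then developer releases AMC, read at 360/460 Ex/Em. Enzyme: 1 ng/ul full-length His-tagged human HDAC8 from baculovirus.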

Recombinant human HDAC6 = biological target: T2, Recombinant human HDAC6 (Homo sapiens, UniProt Q9UBN7); assay: HDAC6 biochemical assay, AMC-labeled peptide substrate; conditions: for IC50: HDAC6, read-out: HDAC Isoform IC50 (nM) 6
T2 construct: full length, MW=159 kDa; GST (N); host or cells: Sf9 insect cells (baculovirus)
T2 sequence (Q9UBN7 1-1215): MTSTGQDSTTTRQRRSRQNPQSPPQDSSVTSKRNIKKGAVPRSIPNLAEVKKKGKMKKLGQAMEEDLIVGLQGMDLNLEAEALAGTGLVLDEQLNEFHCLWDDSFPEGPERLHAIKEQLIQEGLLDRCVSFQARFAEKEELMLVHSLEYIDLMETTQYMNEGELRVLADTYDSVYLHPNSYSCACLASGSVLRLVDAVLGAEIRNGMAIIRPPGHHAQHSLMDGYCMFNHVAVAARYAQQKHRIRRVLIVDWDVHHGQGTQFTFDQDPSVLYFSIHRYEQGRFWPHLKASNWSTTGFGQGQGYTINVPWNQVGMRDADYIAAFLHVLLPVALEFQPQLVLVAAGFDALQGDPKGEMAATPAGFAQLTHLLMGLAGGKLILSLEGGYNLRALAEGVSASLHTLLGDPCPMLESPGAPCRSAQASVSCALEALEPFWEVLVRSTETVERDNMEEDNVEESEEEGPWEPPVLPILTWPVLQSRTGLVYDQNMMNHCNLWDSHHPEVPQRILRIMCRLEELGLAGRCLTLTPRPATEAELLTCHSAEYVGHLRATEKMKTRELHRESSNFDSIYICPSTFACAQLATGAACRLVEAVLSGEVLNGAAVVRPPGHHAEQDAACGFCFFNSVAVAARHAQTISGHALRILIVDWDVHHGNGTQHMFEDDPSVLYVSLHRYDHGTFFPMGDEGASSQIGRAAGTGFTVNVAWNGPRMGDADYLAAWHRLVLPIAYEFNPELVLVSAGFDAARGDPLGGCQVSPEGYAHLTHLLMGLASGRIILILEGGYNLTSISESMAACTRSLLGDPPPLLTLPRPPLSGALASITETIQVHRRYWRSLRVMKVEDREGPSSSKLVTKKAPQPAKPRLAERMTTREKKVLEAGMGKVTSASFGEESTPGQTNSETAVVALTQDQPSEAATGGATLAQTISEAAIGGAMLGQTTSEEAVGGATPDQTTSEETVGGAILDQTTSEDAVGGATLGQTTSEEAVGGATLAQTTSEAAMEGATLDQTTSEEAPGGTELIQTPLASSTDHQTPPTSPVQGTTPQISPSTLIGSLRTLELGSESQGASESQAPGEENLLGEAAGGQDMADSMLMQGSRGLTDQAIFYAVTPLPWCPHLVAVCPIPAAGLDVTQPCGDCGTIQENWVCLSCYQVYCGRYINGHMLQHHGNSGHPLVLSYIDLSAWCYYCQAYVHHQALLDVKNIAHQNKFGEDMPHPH
How it was run: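 Two-step fluorogenic read-out: enzyme deacetylates 50 μM RHKK(Ac)AMC for 1 h at 30° C in pH 8.0 Tris buffer with BSA and 1% DMSO, then developer cleavage gives signal at Ex 360/Em 460. Enzyme: 0.3 ng/ul recombinant full-length human HDAC6, GST-tagged, Sf9-expressed.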

[1] = biological target: T3, Complex of human HDAC3 and human NCOR2 (Homo sapiens, UniProt O15379); assay: HDAC3 biochemical assay, AMC-labeled peptide substrate; conditions: read-out: HDAC Isoform IC50 (nM) 3
T3 construct: full length with C-terminal His tag, MW=49.7 kDa; His (C); host or cells: baculovirus expression system (co-expressed)
T3 sequence (O15379 whole entry, canonical isoform): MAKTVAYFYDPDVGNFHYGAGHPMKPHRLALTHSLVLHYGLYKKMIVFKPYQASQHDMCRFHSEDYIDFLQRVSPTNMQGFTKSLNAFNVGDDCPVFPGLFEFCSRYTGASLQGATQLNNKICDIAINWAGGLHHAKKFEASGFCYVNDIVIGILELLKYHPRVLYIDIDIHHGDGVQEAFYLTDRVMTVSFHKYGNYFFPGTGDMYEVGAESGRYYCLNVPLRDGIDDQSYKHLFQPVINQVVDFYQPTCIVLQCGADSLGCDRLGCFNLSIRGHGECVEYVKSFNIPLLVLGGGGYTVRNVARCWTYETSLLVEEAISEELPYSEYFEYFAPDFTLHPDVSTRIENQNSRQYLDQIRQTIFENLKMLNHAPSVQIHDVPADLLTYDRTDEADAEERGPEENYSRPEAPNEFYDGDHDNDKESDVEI
T3 sequence (Q9Y618 395-489 partner limits assumed): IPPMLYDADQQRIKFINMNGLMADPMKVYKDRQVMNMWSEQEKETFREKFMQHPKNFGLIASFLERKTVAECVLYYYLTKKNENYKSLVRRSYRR
How it was run: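 Two-stage fluorogenic read: compounds incubated 1 h at 30° C with 50 μM RHKK(Ac)AMC and 0.1 ng/ul HDAC3–NCOR2(395-489) complex (Tris pH8.0, NaCl, KCl, MgCl2, BSA, 1% DMSO). Developer digestion of deacetylated product gives signal at Ex 360/Em 460.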

SMILES	IC50 (Human HDAC8) [nM]	IC50 (Recombinant human HDAC6) [nM]	IC50 [1] [nM]	pIC50 (Recombinant human HDAC6; With assay conditions in the experimental section described herein, read-out: HDAC6 IC50)
O=C(c1cnnc(N(Cc2ccc(-c3noc(C(F)(F)F)n3)s2)c2cnccn2)c1)N1CC2(COC2)C1 [Example FZ, 5-{2-Oxa-6-azaspiro[3.3]heptane-6-carbonyl}-N-(pyrazin-2-yl)-N-({5-[5-(trifluoromethyl)-1,2,4-oxadiazol-3-yl]thiophen-2-yl}methyl)pyridazin-3-amine]	≤ 10000	≤ 500	> 10000	–
O=C(c1cnnc(N(Cc2ccc(-c3noc(C(F)(F)F)n3)s2)c2cnccn2)c1)N1CCS(=O)(=O)CC1 [Example ED, 4-{6-[(Pyrazin-2-yl)({5-[5-(trifluoromethyl)-1,2,4-oxadiazol-3-yl]thiophen-2-yl}methyl)amino]pyridazine-4-carbonyl}-1λ^6-thiomorpholine-1,1-dione]	≤ 10000	≤ 500	> 10000	–
CN1CCN(C(=O)c2cnnc(N(Cc3ccc(-c4noc(C(F)(F)F)n4)s3)c3cnccn3)c2)CC1 [Example EC, 5-(4-Methylpiperazine-1-carbonyl)-N-(pyrazin-2-yl)-N-({5-[5-(trifluoromethyl)-1,2,4-oxadiazol-3-yl]thiophen-2-yl}methyl)pyridazin-3-amine]	≤ 10000	≤ 500	> 10000	–
O=C(c1ccc(N(Cc2ccc(-c3noc(C(F)(F)F)n3)s2)c2cnccn2)nn1)N1CCCCC1 [Example FG, 6-(Piperidine-1-carbonyl)-N-(pyrazin-2-yl)-N-({5-[5-(trifluoromethyl)-1,2,4-oxadiazol-3-yl]thiophen-2-yl}methyl)pyridazin-3-amine]	≤ 10000	≤ 500	> 10000	–
O=C(c1nccnc1N(Cc1ccc(-c2noc(C(F)(F)F)n2)s1)c1cnccn1)N1CC(O)(C(F)(F)F)C1 [Example GQ, 1-{3-[(Pyrazin-2-yl)({5-[5-(trifluoromethyl)-1,2,4-oxadiazol-3-yl]thiophen-2-yl}methyl)amino]pyrazine-2-carbonyl}-3-(trifluoromethyl)azetidin-3-ol]	≤ 10000	≤ 1000	> 10000	–
CC(=O)Nc1cnnc(N(Cc2ccc(-c3noc(C(F)(F)F)n3)s2)c2cnccn2)c1 [Example FM, N-{6-[(Pyrazin-2-yl)({5-[5-(trifluoromethyl)-1,2,4-oxadiazol-3-yl]thiophen-2-yl}methyl)amino]pyridazin-4-yl}acetamide]	≤ 10000	≤ 500	> 10000	–
O=C(O)c1cnnc(N(Cc2ccc(-c3noc(C(F)(F)F)n3)s2)c2cnccn2)c1 [Example DW, 6-[(Pyrazin-2-yl)({5-[5-(trifluoromethyl)-1,2,4-oxadiazol-3-yl]thiophen-2-yl}methyl)amino]pyridazine-4-carboxylic acid]	≤ 10000	≤ 500	> 10000	–
O=C(c1ccc(N(Cc2ccc(-c3noc(C(F)(F)F)n3)s2)c2cnccn2)nn1)N1CC[S+]([O-])CC1 [Example FD, 4-{6-[(Pyrazin-2-yl)({5-[5-(trifluoromethyl)-1,2,4-oxadiazol-3-yl]thiophen-2-yl}methyl)amino]pyridazine-3-carbonyl}-1lambda4-thiomorpholin-1-one]	≤ 10000	≤ 500	≤ 10000	–
O=C(c1cnnc(N(Cc2ccc(-c3noc(C(F)(F)F)n3)s2)c2cnccn2)c1)N1CCOCC1 [Example EB, 5-(Morpholine-4-carbonyl)-N-(pyrazin-2-yl)-N-({5-[5-(trifluoromethyl)-1,2,4-oxadiazol-3-yl]thiophen-2-yl}methyl)pyridazin-3-amine]	≤ 10000	≤ 500	> 10000	7.00
O=C(c1cnnc(N(Cc2ccc(-c3noc(C(F)(F)F)n3)s2)c2cnccn2)c1)N1C2CCC1COC2 [Example GB, 5-{3-Oxa-8-azabicyclo[3.2.1]octane-8-carbonyl}-N-(pyrazin-2-yl)-N-({5-[5-(trifluoromethyl)-1,2,4-oxadiazol-3-yl]thiophen-2-yl}methyl)pyridazin-3-amine]	≤ 10000	≤ 500	> 10000	–
FC(F)(F)c1nc(-c2ccc(CN(c3cnccn3)c3cnccn3)s2)no1 [Example BA, N-(Pyrazin-2-yl)-N-({5-[5-(trifluoromethyl)-1,2,4-oxadiazol-3-yl]thiophen-2-yl}methyl)pyrazin-2-amine]	≤ 10000	≤ 500	> 10000	–
FC(F)(F)c1nc(-c2ccc(CN(c3cnccn3)c3cc(CN4CCOCC4)ccn3)s2)no1 [Example GI, N-{4-[(Morpholin-4-yl)methyl]pyridin-2-yl}-N-({5-[5-(trifluoromethyl)-1,2,4-oxadiazol-3-yl]thiophen-2-yl}methyl)pyrazin-2-amine]	≤ 10000	≤ 1000	> 10000	–
FC(F)(F)c1cnnc(N(Cc2ccc(-c3noc(C(F)(F)F)n3)s2)c2cnccn2)c1 [Example EF, N-(Pyrazin-2-yl)-5-(trifluoromethyl)-N-({5-[5-(trifluoromethyl)-1,2,4-oxadiazol-3-yl]thiophen-2-yl}methyl)pyridazin-3-amine]	≤ 10000	≤ 500	> 10000	–
FC(F)(F)c1cnc(N(Cc2ccc(-c3noc(C(F)(F)F)n3)s2)c2cnccn2)cn1 [Example BK, N-(Pyrazin-2-yl)-5-(trifluoromethyl)-N-({5-[5-(trifluoromethyl)-1,2,4-oxadiazol-3-yl]thiophen-2-yl}methyl)pyrazin-2-amine]	≤ 10000	≤ 10000	> 10000	–
FC(F)(F)c1nc(-c2ccc(CN(c3cnccn3)c3ccc(CN4CCOCC4)nn3)s2)no1 [Example FN, 6-[(Morpholin-4-yl)methyl]-N-(pyrazin-2-yl)-N-({5-[5-(trifluoromethyl)-1,2,4-oxadiazol-3-yl]thiophen-2-yl}methyl)pyridazin-3-amine]	≤ 10000	≤ 500	> 10000	–
O=C(c1cnnc(N(Cc2ccc(-c3noc(C(F)(F)F)n3)s2)c2cnccn2)c1)N1CC(C(F)F)C1 [Example GK, 5-[3-(Difluoromethyl)azetidine-1-carbonyl]-N-(pyrazin-2-yl)-N-({5-[5-(trifluoromethyl)-1,2,4-oxadiazol-3-yl]thiophen-2-yl}methyl)pyridazin-3-amine]	≤ 10000	≤ 500	≤ 10000	–
